According to patent publication US10857149B2, “Liquid formulations of salts of 1-[2-(2,4-dimethylphenylsulfanyl)phenyl]-piperazine” (H. Lundbeck A/S, priority 2009, dated 2020):
Entries after “also recorded” stand apart in the source; their conditions may differ. Structures can show the parent of a compound that is named as a salt. Where two headings read alike, the source gives them in different places.

Assays:
[1] = target: serotonin transporter (Homo sapiens, UniProt P31645); conditions: cited from earlier work
serotonin transporter, sequence (P31645 whole entry): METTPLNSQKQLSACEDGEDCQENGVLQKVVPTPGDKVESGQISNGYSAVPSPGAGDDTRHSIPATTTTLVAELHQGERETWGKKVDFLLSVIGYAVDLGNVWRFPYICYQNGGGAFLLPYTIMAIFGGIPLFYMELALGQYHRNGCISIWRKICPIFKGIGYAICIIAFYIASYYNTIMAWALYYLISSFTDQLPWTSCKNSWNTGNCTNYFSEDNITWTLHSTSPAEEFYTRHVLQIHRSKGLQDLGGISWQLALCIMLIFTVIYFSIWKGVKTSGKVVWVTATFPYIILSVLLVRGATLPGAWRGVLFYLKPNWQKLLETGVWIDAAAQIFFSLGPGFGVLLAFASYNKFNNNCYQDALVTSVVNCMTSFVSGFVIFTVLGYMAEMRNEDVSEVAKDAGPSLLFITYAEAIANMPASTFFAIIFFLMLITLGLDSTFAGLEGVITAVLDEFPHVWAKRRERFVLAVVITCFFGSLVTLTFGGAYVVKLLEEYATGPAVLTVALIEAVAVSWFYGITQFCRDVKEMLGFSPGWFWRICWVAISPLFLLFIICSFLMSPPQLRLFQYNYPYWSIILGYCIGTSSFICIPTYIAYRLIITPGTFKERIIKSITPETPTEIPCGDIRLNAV

[2] = room temperature, previously known salt forms, Table 2 (WO 2008/113359), cited from earlier work
[3] = tested on: extracellular levels of serotonin, noradrenaline, dopamine and acetylcholine; conditions: rat brains; cited from earlier work
[4] = target: T1, 5-HT3 receptor (Homo sapiens, UniProt P46098); conditions: listed as compound I; cited from earlier work
T1 sequence (P46098 24-478): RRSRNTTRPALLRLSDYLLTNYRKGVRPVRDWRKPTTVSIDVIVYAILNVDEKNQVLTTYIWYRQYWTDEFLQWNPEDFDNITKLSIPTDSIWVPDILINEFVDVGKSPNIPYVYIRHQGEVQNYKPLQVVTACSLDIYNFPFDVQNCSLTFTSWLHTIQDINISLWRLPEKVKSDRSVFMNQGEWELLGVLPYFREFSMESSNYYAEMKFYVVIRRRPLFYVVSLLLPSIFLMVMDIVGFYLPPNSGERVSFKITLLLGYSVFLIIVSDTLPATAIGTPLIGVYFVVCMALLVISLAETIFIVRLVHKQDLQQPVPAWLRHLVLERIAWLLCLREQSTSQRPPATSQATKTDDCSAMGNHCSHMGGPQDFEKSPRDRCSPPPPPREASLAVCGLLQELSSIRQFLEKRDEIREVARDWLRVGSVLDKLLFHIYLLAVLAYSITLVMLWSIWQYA

[5] = Crystal form behaviour on exposure to water / aqueous slurry; assay type: physicochemical; conditions: exposed to water / aqueous slurry
[6] = Room temperature (aqueous) solubility of salt forms; assay type: physicochemical; conditions: for aqueous solubility: concentration equivalent to free base; for Solubility: lactate forms, Table 1; for pH at the solubility value: printed in the solubility cell
[7] = depressed patients; cited from earlier work

Q: For Cc1ccc(Sc2ccccc2N2CCNCC2)c(C)c1 [Compound I, 1-[2-(2,4-dimethylphenylsulfanyl)phenyl]piperazine], which “action at the serotonin transporter” value [1] is on record?
A: Its value is “inhibition”.

Q: And the “action at the serotonin transporter” value ([1]; listed as compound I)?
A: The value was “inhibitor”.

Q: And the Solubility ([2]; listed as Crystalline base)?
A: Its Solubility is 0.1 mg base/mL.

Q: And the “extracellular levels of serotonin, noradrenaline, dopamine and acetylcholine” value [3]?
A: The value was “increase”.

Q: And the “action at the 5-HT3 receptor” value [4]?
A: Its value is “antagonist; also recorded: antagonism”.

Q: Which Solubility [2] does the source give for Cc1ccc(Sc2ccccc2N2CCNCC2)c(C)c1 [D-(−)-tartrate, 1-[2-(2,4-dimethyl-phenylsulfanyl)-phenyl] piperazine] here?
A: The Solubility was ~0.4 mg base/mL.

Q: For CC(O)C(=O)O.Cc1ccc(Sc2ccccc2N2CCNCC2)c(C)c1 [DL-lactate MH, 1-[2-(2,4-dimethyl-phenylsulfanyl)-phenyl] Piperazine, DL-Lactate], which “transformation of crystal form in water” value [5] is on record?
A: The value was “transformed into the beta form in aqueous slurry”.

Q: For CC(O)C(=O)O.Cc1ccc(Sc2ccccc2N2CCNCC2)c(C)c1 [DL-lactate α, 1-[2-(2,4-dimethyl-phenylsulfanyl)-phenyl] piperazine, DL-Lactate], which “transformation of crystal form in water” value ([5]; listed as α form) is on record?
A: The value was “transformed into the β form in the aqueous slurry”.

Q: For CC(O)C(=O)O.Cc1ccc(Sc2ccccc2N2CCNCC2)c(C)c1 [DL-lactate β, 1-[2-(2,4-dimethyl-phenylsulfanyl)-phenyl] Piperazine, DL-Lactate], which aqueous solubility [6] is on record?
A: The aqueous solubility was 8 mg/mL.

Q: And the Solubility ([6]; room temperature)?
A: Its Solubility is 8 mg base/mL.

Q: What about the “pH at the solubility value” ([6]; room temperature) of the same compound?
A: The value was 6.

Q: With CC(O)C(=O)O.Cc1ccc(Sc2ccccc2N2CCNCC2)c(C)c1 [DL-lactate γ, 1-[2-(2,4-dimethyl-phenylsulfanyl)-phenyl] Piperazine, DL-Lactate] as the compound, how does the “transformation of crystal form in water” value ([5]; listed as γ form) read?
A: Its value is “transforms into the beta form in aqueous slurry”.

Q: Which Solubility [2] does the source give for Cc1ccc(Sc2ccccc2N2CCNCC2)c(C)c1 [Fumarate, 1-[2-(2,4-dimethyl-phenylsulfanyl)-phenyl] piperazine] here?
A: The Solubility was 0.4 mg base/mL.

Q: With Br.Cc1ccc(Sc2ccccc2N2CCNCC2)c(C)c1 [HBr addition salt] as the compound, how does the “level of sleep and sexually related adverse events” value [7] read?
A: Its value is “surprisingly low level”.

Q: Which Solubility [2] does the source give for Cc1ccc(Sc2ccccc2N2CCNCC2)c(C)c1 [HBr, α-form, 1-[2-(2,4-dimethyl-phenylsulfanyl)-phenyl] piperazine] here?
A: Its Solubility is 2.0 mg base/mL.

Q: For Cc1ccc(Sc2ccccc2N2CCNCC2)c(C)c1 [HBr, β-form, 1-[2-(2,4-dimethyl-phenylsulfanyl)-phenyl] piperazine], which Solubility [2] is on record?
A: The Solubility was 1.2 mg base/mL.

Q: With Cc1ccc(Sc2ccccc2N2CCNCC2)c(C)c1 [HCl, 1-[2-(2,4-dimethyl-phenylsulfanyl)-phenyl] piperazine] as the compound, how does the Solubility [2] read?
A: The Solubility was 3.0 mg base/mL.

Q: Which Solubility [2] does the source give for Cc1ccc(Sc2ccccc2N2CCNCC2)c(C)c1 [HCl, MH, 1-[2-(2,4-dimethyl-phenylsulfanyl)-phenyl] piperazine] here?
A: Its Solubility is 2.0 mg base/mL.

Q: For Cc1ccc(Sc2ccccc2N2CCNCC2)c(C)c1 [L-(+)-tartrate, 1-[2-(2,4-dimethyl-phenylsulfanyl)-phenyl] piperazine], which Solubility [2] is on record?
A: The Solubility was ~0.4 mg base/mL.

Q: For C[C@H](O)C(=O)O.Cc1ccc(Sc2ccccc2N2CCNCC2)c(C)c1 [L-lactate AH1, 1-[2-(2,4-dimethyl-phenylsulfanyl)-phenyl] Piperazine, L-Lactate], which “transformation of crystal form in water” value ([5]; listed as AH1) is on record?
A: Its value is “transforms into monohydrate when exposed to water”.

Q: What does the source list for C[C@H](O)C(=O)O.Cc1ccc(Sc2ccccc2N2CCNCC2)c(C)c1 [L-lactate MH1, 1-[2-(2,4-dimethyl-phenylsulfanyl)-phenyl] Piperazine, L-Lactate]?
A: transformation of crystal form in water ([5]; listed as MH1): transforms into the MH2 in aqueous slurry; Solubility, bound given for a form that could not be measured ([6]; room temperature, MH1 transforms into MH2 in aqueous slurry): na (>26) mg base/mL

Q: For C[C@H](O)C(=O)O.Cc1ccc(Sc2ccccc2N2CCNCC2)c(C)c1 [L-lactate MH2, 1-[2-(2,4-dimethyl-phenylsulfanyl)-phenyl] Piperazine, L-Lactate], which aqueous solubility [6] is on record?
A: The aqueous solubility was 26 mg/mL.

Q: And the Solubility ([6]; room temperature)?
A: The Solubility was 26 mg base/mL.

Q: What about the “pH at the solubility value” ([6]; room temperature) of the same compound?
A: Its value is 5.2.

Q: Which Solubility [2] does the source give for Cc1ccc(Sc2ccccc2N2CCNCC2)c(C)c1 [Maleate, 1-[2-(2,4-dimethyl-phenylsulfanyl)-phenyl] piperazine] here?
A: The Solubility was ~1 mg base/mL.

Q: With Cc1ccc(Sc2ccccc2N2CCNCC2)c(C)c1 [Meso-tartrate, 1-[2-(2,4-dimethyl-phenylsulfanyl)-phenyl] piperazine] as the compound, how does the Solubility [2] read?
A: The Solubility was ~0.7 mg base/mL.

Q: With Cc1ccc(Sc2ccccc2N2CCNCC2)c(C)c1 [Mesylate, 1-[2-(2,4-dimethyl-phenylsulfanyl)-phenyl] piperazine] as the compound, how does the Solubility [2] read?
A: The Solubility was >45 mg base/mL.

Q: Which Solubility [2] does the source give for Cc1ccc(Sc2ccccc2N2CCNCC2)c(C)c1 [Nitrate, 1-[2-(2,4-dimethyl-phenylsulfanyl)-phenyl] piperazine] here?
A: The Solubility was ~0.8 mg base/mL.

Q: With Cc1ccc(Sc2ccccc2N2CCNCC2)c(C)c1 [Phosphate, 1-[2-(2,4-dimethyl-phenylsulfanyl)-phenyl] piperazine] as the compound, how does the Solubility [2] read?
A: Its Solubility is ~1 mg base/mL.

Q: Which Solubility [2] does the source give for Cc1ccc(Sc2ccccc2N2CCNCC2)c(C)c1 [Sulphate, 1-[2-(2,4-dimethyl-phenylsulfanyl)-phenyl] piperazine] here?
A: Its Solubility is ~0.1 mg base/mL.
